Laboratory results: the CheMixHub viscosity set

Assay: xn = mol fraction of the nth substance listed

NNc1ccccc1 + COc1ccccc1O
303.15 K, 101 kPa
Conditions | viscosity [mPa·s]
x1 = 0.1 | 5.95
x1 = 0.2 | 8.21
x1 = 0.3 | 10.92
x1 = 0.4 | 13.15
x1 = 0.45 | 14.65
x1 = 0.5 | 15.26
x1 = 0.6 | 15.77
x1 = 0.667 | 16.06
x1 = 0.7 | 15.54
x1 = 0.8 | 14.08
x1 = 0.9 | 12.33

CC[N+](CC)(CC)CC.[I-] + O
viscosity [mPa·s], 101 kPa
Conditions | x1 = 0.0005 | x1 = 0.0009 | x1 = 0.0018 | x1 = 0.0027 | x1 = 0.0036
293.15 K | 1.004 | 1.018 | 1.037 | 1.051 | 1.074
298.15 K | 0.893 | 0.902 | 0.916 | 0.931 | 0.943
303.15 K | 0.826 | 0.835 | 0.846 | 0.859 | 0.872
308.15 K | 0.697 | 0.703 | 0.713 | 0.723 | 0.733

N#Cc1ccccc1 + CO
Conditions | viscosity [mPa·s]
303 K, 100 kPa, x1 = 0.0991 | 0.6312
303 K, 100 kPa, x1 = 0.2405 | 0.7232
303 K, 100 kPa, x1 = 0.3585 | 0.7886
303 K, 100 kPa, x1 = 0.4974 | 0.8399
303 K, 100 kPa, x1 = 0.6272 | 0.9121
303 K, 100 kPa, x1 = 0.7094 | 0.9522
303 K, 100 kPa, x1 = 0.8023 | 0.9912
303 K, 100 kPa, x1 = 0.897 | 1.035
303.15 K, 101.33 kPa, x1 = 0.0854 | 0.562
303.15 K, 101.33 kPa, x1 = 0.1569 | 0.603
303.15 K, 101.33 kPa, x1 = 0.2408 | 0.652
303.15 K, 101.33 kPa, x1 = 0.4349 | 0.763
303.15 K, 101.33 kPa, x1 = 0.5335 | 0.82
303.15 K, 101.33 kPa, x1 = 0.6304 | 0.875
303.15 K, 101.33 kPa, x1 = 0.7155 | 0.926
303.15 K, 101.33 kPa, x1 = 0.8439 | 1.011
303.15 K, 101.33 kPa, x1 = 0.9059 | 1.061
308 K, 100 kPa, x1 = 0.0991 | 0.5712
308 K, 100 kPa, x1 = 0.2405 | 0.6523
308 K, 100 kPa, x1 = 0.3585 | 0.7123
308 K, 100 kPa, x1 = 0.4974 | 0.7652
308 K, 100 kPa, x1 = 0.6272 | 0.8012
308 K, 100 kPa, x1 = 0.7094 | 0.8307
308 K, 100 kPa, x1 = 0.8023 | 0.8716
308 K, 100 kPa, x1 = 0.897 | 0.9146
308.15 K, 101.33 kPa, x1 = 0.0854 | 0.525
308.15 K, 101.33 kPa, x1 = 0.1569 | 0.562
308.15 K, 101.33 kPa, x1 = 0.2408 | 0.608
308.15 K, 101.33 kPa, x1 = 0.4349 | 0.709
308.15 K, 101.33 kPa, x1 = 0.5335 | 0.761
308.15 K, 101.33 kPa, x1 = 0.6304 | 0.811
308.15 K, 101.33 kPa, x1 = 0.7155 | 0.859
308.15 K, 101.33 kPa, x1 = 0.8439 | 0.938
308.15 K, 101.33 kPa, x1 = 0.9059 | 0.985
313 K, 100 kPa, x1 = 0.0991 | 0.5056
313 K, 100 kPa, x1 = 0.2405 | 0.5595
313 K, 100 kPa, x1 = 0.3585 | 0.6235
313 K, 100 kPa, x1 = 0.4974 | 0.6856
313 K, 100 kPa, x1 = 0.6272 | 0.7325
313 K, 100 kPa, x1 = 0.7094 | 0.7731
313 K, 100 kPa, x1 = 0.8023 | 0.8134
313 K, 100 kPa, x1 = 0.897 | 0.8658

O=P([O-])([O-])[O-].[K+].[K+].[K+] + O
viscosity [mPa·s], 101 kPa
Conditions | x1 = 0.0018 | x1 = 0.0054 | x1 = 0.0089 | x1 = 0.012 | x1 = 0.016
298.15 K | 0.9999 | 1.068 | 1.197 | 1.397 | 1.648
303.15 K | 0.8476 | 0.9587 | 1.107 | 1.268 | 1.492
308.15 K | 0.7639 | 0.8485 | 0.9715 | 1.123 | 1.341

CCCOCCO + O=S1(=O)CCCC1
303.15 K, 101 kPa
Conditions | viscosity [mPa·s]
x2 = 0.0493 | 1.842
x2 = 0.1029 | 1.682
x2 = 0.1508 | 1.659
x2 = 0.1991 | 1.748
x2 = 0.2989 | 2.284
x2 = 0.3489 | 2.685
x2 = 0.3998 | 3.16
x2 = 0.4993 | 4.193
x2 = 0.5988 | 5.262
x2 = 0.7002 | 6.392
x2 = 0.8 | 7.572
x2 = 0.9012 | 8.861
x2 = 0.9504 | 9.498

CCCCn1cc[n+](C)c1.[Cl-] + O
101 kPa
Conditions | viscosity [mPa·s]
293.15 K, x2 = 0.4982 | 235.1
293.15 K, x2 = 0.6132 | 85.9
303.15 K, x2 = 0.5535 | 83.3
308.15 K, x2 = 0.4982 | 92.5

N#Cc1ccccc1 + CC(C)(C)O
viscosity [mPa·s], 101.33 kPa
Conditions | x1 = 0.0567 | x1 = 0.1542 | x1 = 0.2837 | x1 = 0.3997 | x1 = 0.4923 | x1 = 0.5993 | x1 = 0.7289 | x1 = 0.8283 | x1 = 0.8923
303.15 K | 2.895 | 2.017 | 1.578 | 1.365 | 1.262 | 1.203 | 1.142 | 1.121 | 1.114
308.15 K | 2.311 | 1.696 | 1.368 | 1.223 | 1.137 | 1.094 | 1.043 | 1.034 | 1.028
313.15 K | 1.811 | 1.429 | 1.187 | 1.072 | 1.021 | 1.001 | 0.98 | 0.962 | 0.951

CCCCOCCCOCCCO + CCO
viscosity [mPa·s], 101.33 kPa
Conditions | 298.15 K | 308.15 K | 318.15 K
x1 = 0.05 | 1.3 | 1.074 | 0.896
x1 = 0.1 | 1.505 | 1.227 | 1.015
x1 = 0.15 | 1.717 | 1.386 | 1.137
x1 = 0.2 | 1.927 | 1.541 | 1.256
x1 = 0.25 | 2.135 | 1.696 | 1.369
x1 = 0.3 | 2.362 | 1.858 | 1.497
x1 = 0.35 | 2.562 | 2.003 | 1.597
x1 = 0.4001 | 2.755 | 2.14 | 1.696
x1 = 0.4499 | 2.94 | 2.265 | 1.79
x1 = 0.4999 | 3.121 | 2.39 | 1.879
x1 = 0.5499 | 3.292 | 2.51 | 1.956
x1 = 0.5997 | 3.453 | 2.622 | 2.039
x1 = 0.6501 | 3.608 | 2.724 | 2.114
x1 = 0.6998 | 3.756 | 2.821 | 2.182
x1 = 0.7499 | 3.899 | 2.91 | 2.24
x1 = 0.7999 | 4.018 | 2.998 | 2.306
x1 = 0.8499 | 4.147 | 3.088 | 2.363
x1 = 0.8997 | 4.271 | 3.158 | 2.423
x1 = 0.9498 | 4.386 | 3.233 | 2.466

N#Cc1ccccc1 + CCCCO
viscosity [mPa·s], 101.33 kPa
Conditions | x1 = 0.033 | x1 = 0.1519 | x1 = 0.2155 | x1 = 0.3392 | x1 = 0.4092 | x1 = 0.504 | x1 = 0.6218 | x1 = 0.7894 | x1 = 0.9629
303.15 K | 2.094 | 1.716 | 1.583 | 1.382 | 1.3 | 1.213 | 1.149 | 1.108 | 1.119
308.15 K | 1.844 | 1.534 | 1.414 | 1.245 | 1.186 | 1.108 | 1.053 | 1.021 | 1.04
313.15 K | 1.66 | 1.378 | 1.281 | 1.14 | 1.08 | 1.02 | 0.976 | 0.945 | 0.978
